Test results published in patent EP4775577A1, “RAS INHIBITOR” (Tyligand Bioscience (Shanghai) Limited, priority 2023, dated 2025).
Like-named read-outs stand apart in the source and are kept apart here.

Key:
[1] = system: KRAS G12V mutant NCI-H727 cells; assay: Proliferation inhibition of NCI-H727 cells, 3D CellTiter-Glo assay (Method B); format: cell-based, human; conditions: Method B, 3D culture with 0.65% methylcellulose, 5 days, CTG, read-out: NCI-H727 IC50/nM
Procedure: NCI-H727 cells (Nanjing Kebai Biotechnology Co., Ltd., catalog number CBP60182, adherent, culture medium RPMI-1640+10%FBS (GIBCO, Cat#10091-148)) were cultured at 37°C, 5% CO2, and 95% humidity.
3D cell viability assay: Cells in the logarithmic growth phase were harvested and counted using a platelet counter. Cell viability was assessed using the trypan blue exclusion method to ensure a viability of over 90%. The 3D cell culture medium was prepared by adding 1% MC (methylcellulose, Sigma, Cat#M0512) to RPMI-1640 medium and 10% FBS. The cell concentration was adjusted to approximately 25,000 cells/mL using the 3D medium, and the methylcellulose (MC) content was set to 0.65%. Then, 80 µL of cell suspension was added to each 96-well clear, flat-bottomed, black-walled plate (Greiner, Cat# 655096). The cells in the 96-well plates were cultured overnight at 37°C and 5% CO2.
Drug preparation for IC50 assay: A 5-fold drug solution was prepared using culture medium. 20 µL of the drug solution was added to each well of a 96-well plate seeded with cells to achieve a working concentration of up to 10 µM, with a 3× dilution, and 9 concentrations. 2 replicate wells for each drug concentration were set. The cells in the drug-treated 96-well plates were cultured at 37°C and 5% CO2 for additional 5 days, then CTG assay (CellTiter-Glo® Luminescent Cell Viability Assay (Promega, Cat#G7573)) were performed.
The cell plate was equilibrated to room temperature for 30 minutes and the CTG reagent was thawed. 50 µL of CTG solution was added to each well for detection and the plate was shaken on an orbital shaker for 5 minutes to lyse the cells. The cell plate was then placed at room temperature for 25 minutes to stabilize the cryo-luminescence signal, and the cryo-luminescence value was read (EnVision® multi-plate reader, PerkinElmer#2105).
(§1) Data was analyzed using GraphPad Prism software. The dose-response-inhibition equation was used to fit the data to obtain the dose-response curve, and the IC50 value (nM) was calculated accordingly. [formula]

[2] = system: KRAS G12D mutant AGS cells; assay: Proliferation inhibition of AGS cells, CellTiter-Glo assay; format: cell-based, human; conditions: 3 days, CTG, read-out: AGS IC50/nM
Procedure: AGS cells (Nanjing Kebai Biotechnology Co., Ltd., catalog number CBP60476, adherent, culture medium (F12K Nutrient Mixture+10% FBS (GIBCO, Cat#10091-148) were cultured at 37°C, 5% CO2, and 95% humidity at a density of 1500 cells/well. Cells in the logarithmic growth phase were harvested and counted using a Countstar automated cell counter based on the classic trypan blue staining method to ensure cell viability was above 90%. The cell concentration was adjusted, and 80 µL of cell suspension was added to each 96-well clear flat-bottomed, black-walled plate (Greiner, Cat# 655090). The cells in the 96-well plates were then cultured at 37°C and 5% CO2.
Drug preparation for IC50 assay: A 5-fold drug solution was prepared using culture medium. 20 µL of the drug solution was added to each well of a 96-well plate seeded with cells to achieve a working concentration of up to 10 µM, with a 3 × dilution, and a total of 9 concentrations. 2 replicate wells for each drug concentration were set. The cells in the drug-treated 96-well plates were cultured at 37°C and 5% CO2 for additional 3 days and then CTG assay were performed.
The cell plate was equilibrated to room temperature for 30 minutes and the CTG reagent (CellTiter-Glo® Luminescent Cell Viability Assay (Promega, Cat# G7573)) was thawed. 50 µL of CTG solution was added to each well and the plate was shaken on an orbital shaker for 2 minutes to lyse the cells. The cell plate was placed at room temperature for 10 minutes to stabilize the cryo-luminescence signal and the cryo-luminescence value was read (EnVision® Multifunctional microplate reader, PerkinElmer #2105).
as §1

SMILES	IC50 ([1]; Homo sapiens, NCI-H727, 120 h)	IC50 ([2]; Homo sapiens, AGS, 72 h)	IC50 [1]	IC50 [2]
CCN1CC/C(=C\F)[C@](C)(COc2nc(N3Cc4c(OC)c(C(=O)N(C)C)nn4CC[C@@H]3C)c3cc(Cl)c(-c4c(F)ccc5sc(N)c(C#N)c45)c(F)c3n2)C1 (single isomer, unassigned) [Example 234A]	< 1.5 nM	< 1.5 nM	–	–
CN1CC/C(=C\F)[C@](C)(COc2nc(N3CCCn4nc(N)c(C(=O)N(C)C)c4C3)c3cc(C(F)(F)F)c(-c4cccc5sc(N)c(C#N)c45)c(F)c3n2)C1 [Example 121]	439 nM	179 nM	–	–
CCc1cc2c(N3Cc4cc(C(=O)N(C)C)nn4CC[C@@H]3C)nc(OC[C@]3(C)CN(C)CC/C3=C\F)nc2c(F)c1-c1ncc(F)c2sc(N)c(C#N)c12 [Example 170A]	81.9 nM	33.2 nM	–	–
CCc1cc2c(N3Cc4cc(C(=O)N(C)C)nn4CC[C@@H]3C)nc(OC[C@]3(C)CN(C)CC/C3=C\F)nc2c(F)c1-c1ccc(F)c2sc(N)c(C#N)c12 [Example 166A]	7.4 nM	4.9 nM	–	–
[2H]C([2H])([2H])N1CCC(=CF)C(C)(COc2nc(N3Cc4cc(C(=O)N(C)C)nn4CCC3C)c3cc(CC)c(-c4c(F)ccc5sc(N)c(C#N)c45)c(Cl)c3n2)C1 (stereo not drawn) [Example 192]	2 nM	< 1.5 nM	–	–
CCN1CC/C(=C\F)[C@](C)(COc2nc(N3Cc4c(COC)c(C(=O)N(C)C)nn4CC[C@@H]3C)c3cc(Cl)c(-c4ncc(F)c5sc(N)c(C#N)c45)c(C)c3n2)C1 (single isomer, unassigned) [Example 238A]	6.5 nM	11.5 nM	–	–
CCc1cc2c(N3Cc4cc(C(=O)N(C)C)nn4CCC3C)nc(OCC3(C)CN(CC)CCC3=CF)nc2c(C)c1-c1c(F)ccc2sc(N)c(C#N)c12 (stereo not drawn) [Example 189]	2.6 nM	2 nM	–	–
CCN1CC/C(=C\F)[C@](C)(COc2nc(N3Cc4cc(C(=O)N5CC(F)C5)nn4CC[C@@H]3C)c3cc(Cl)c(-c4c(F)ccc5sc(N)c(C#N)c45)c(F)c3n2)C1 [Example 277A]	1.8 nM	< 1.5 nM	–	–
CN1CC/C(=C\F)[C@](C)(COc2nc(N3CCCn4nc(C(=O)N(C)C)c(Cl)c4C3)c3cc(C4CC4)c(-c4ncc(F)c5sc(N)c(C#N)c45)c(F)c3n2)C1 [Example 167A]	96.7 nM	21.7 nM	–	–
CCN1CC/C(=C\F)[C@](C)(COc2nc(N3CCCn4nc(C(=O)N(C)C)c(Cl)c4C3)c3cc(Cl)c(-c4c(F)ccc5sc(N)c(C#N)c45)c(C)c3n2)C1 [Example 180]	11.3 nM	10.6 nM	–	–
[2H]C([2H])([2H])N1CCC(=CF)C(C)(COc2nc(N3CCCn4nc(C(=O)N(C)C)c(Cl)c4C3)c3cc(CC)c(-c4c(F)ccc5sc(N)c(C#N)c45)c(Cl)c3n2)C1 (stereo not drawn) [Example 190]	3.2 nM	< 1.5 nM	–	–
CCN1CC/C(=C\F)[C@](C)(COc2nc(N3Cc4cc(C(=O)N(C)C)nn4CC[C@@H]3C)c3cc(C(F)(F)F)c(-c4c(F)ccc5sc(N)c(C#N)c45)c(F)c3n2)C1 (single isomer, unassigned) [Example 248A]	< 1.5 nM	< 1.5 nM	–	–
CCN1CCC(=CF)C(C)(COc2nc(N3Cc4cc(C(=O)N5CCN(C)CC5)nn4CCC3C)c3cc(Cl)c(-c4c(F)ccc5sc(N)c(C#N)c45)c(F)c3n2)C1 (stereo not drawn) [Example 261A]	1.9 nM	< 1.5 nM	–	–
[2H]C([2H])([2H])N1CC/C(=C\F)[C@](C)(COc2nc(N3Cc4cc(C(=O)NC)nn4CC[C@@H]3C)c3cc(CC)c(-c4c(F)ccc5sc(N)c(C#N)c45)c(F)c3n2)C1 [Example 270A]	4.9 nM	3.6 nM	–	–
CCc1cc2c(N3Cc4cc(C(=O)N(C)C)nn4CC[C@@H]3C)nc(OC[C@]3(C)CN(C)CC/C3=C\F)nc2c(F)c1-c1cccc2sc(N)c(C#N)c12 [Example 165A]	3.6 nM	3.2 nM	–	–
[2H]C([2H])([2H])N1CCC(=CF)C(C)(COc2nc(N3Cc4cc(C(=O)N(C)C)nn4CCC3C)c3cc(CC)c(-c4c(F)ccc5sc(N)c(C#N)c45)c(C)c3n2)C1 (stereo not drawn) [Example 188]	3.1 nM	2.9 nM	–	–
[2H]C([2H])([2H])N1CC[C@H](C(F)F)[C@](C)(COc2nc(N3CCOC[C@@](C)(O)C3)c3cc(C#N)c(-c4cccc5sc(N)c(C#N)c45)c(F)c3n2)C1 [Example 91]	48.5 nM	84.7 nM	–	–
CN1CC[C@H](C(F)F)[C@](C)(COc2nc(N3CCOC[C@@](C)(O)C3)c3cc([N+](=O)[O-])c(-c4cccc5sc(N)c(C#N)c45)c(F)c3n2)C1 (atropisomer, axis not shown; (Ra)) [Example 86A]	–	–	1.9 nM	4.9 nM
[2H]C([2H])([2H])N1CCC(=CF)C(C)(COc2nc(N3CCCn4nc(C(=O)N(C)C)c(Cl)c4C3)c3cc(Cl)c(-c4c(F)ccc5sc(N)c(C#N)c45)c(Cl)c3n2)C1 (stereo not drawn) [Example 195]	2.5 nM	2.5 nM	–	–
CCN1CC/C(=C\F)[C@](C)(COc2nc(N3Cc4cc(C(=O)N(C)C)nn4CC[C@@H]3C)c3cc(Cl)c(-c4nccc5sc(N)c(C#N)c45)c(C)c3n2)C1 [Example 276A]	33.4 nM	18.5 nM	–	–
CCN1CC/C(=C\F)[C@](C)(COc2nc(N3Cc4cc(C(=O)N(C)C)nn4CC[C@@H]3C)c3cc(Cl)c(-c4c(F)ccc5sc(N)c(C#N)c45)c(C(F)F)c3n2)C1 (single isomer, unassigned) [Example 242A]	6.3 nM	5.4 nM	–	–
CN1CC/C(=C\F)[C@](C)(COc2nc(N3CCCn4nc(C(=O)N(C)C)cc4C3)c3cc(Cl)c(-c4cccc5sc(N)c(C#N)c45)c(F)c3n2)C1 (atropisomer, axis not shown; (Sa)) [Example 94A, (Sa)-5-(7-(2-amino-3-cyanobenzo[b]thiophene-4-yl)-6-chloro-8-fluoro-2-(((S,E)-4-(fluoromethylene)-1,3-dimethylpiperidine-3-yl)methoxy)quinazoline-4-yl)-N,N-dimethyl-5,6,7,8-tetrahydro-4H-pyrazolo[1,5-a][1,4]diazepine-2-formamide·formate]	9 nM	3.3 nM	–	–
CCN1CCC(=CF)C(C)(COc2nc(N3Cc4cc(C(=O)N(C)C)nn4CCC3C)c3cc(Cl)c(-c4c(C#N)c(N)cc(C)c4C(F)(F)F)c(C)c3n2)C1 (stereo not drawn) [Example 221]	71.8 nM	103 nM	–	–
CCN1CCC(=CF)C(C)(COc2nc(N3Cc4cc(C(=O)N5CCC5)nn4CCC3C)c3cc(Cl)c(-c4c(F)ccc5sc(N)c(C#N)c45)c(F)c3n2)C1 (stereo not drawn) [Example 254A]	< 1.5 nM	< 1.5 nM	–	–
CN1CC[C@H](C(F)F)[C@](C)(COc2nc(N3CCCn4nc(C(=O)N(C)C)cc4C3)c3cc(C(F)(F)F)c(-c4cccc5sc(N)c(C#N)c45)c(F)c3n2)C1 [Example 7, 5-(7-(2-Amino-3-cyanobenzo[b]thiophene-4-yl)-2-(((3S,4S)-4-(difluoromethyl)-1,3-dimethylpiperidine-3-yl)methoxy)-8-fluoro-6-(trifluoromethyl)quinazoline-4-yl)-N,N-dimethyl-5,6,7,8-tetrahydro-4H-pyrazolo[1,5-a][1,4]diazepine-2-formamide]	13.1 nM	6.7 nM	–	–
[2H]C([2H])([2H])N1CCC(C(F)F)C(C)(COc2nc(N3CCOCC(C)(O)C3)c3cc(C(F)(F)F)c(-c4ccc(F)c5sc(N)c(C#N)c45)c(F)c3n2)C1 (stereo not drawn) [Example 99]	2.4 nM	13.1 nM	–	–
[2H]C([2H])([2H])N1CC/C(=C\F)[C@](C)(COc2nc(N3Cc4c(C#C)c(C(=O)N(C)C)nn4CC[C@@H]3C)c3cc(CC)c(-c4c(F)ccc5sc(N)c(C#N)c45)c(F)c3n2)C1 (single isomer, unassigned) [Example 184A]	4.3 nM	3.4 nM	–	–
